For one compound, LDL and Triglycerides results are on record in patent US20210023223A1, “HYDROCARBON / LIPID - CAROTENOID COMPLEXES” (IP SCIENCE LIMITED, priority 2018, published 2021).

In the test the test system is individuals with a moderate hyperlipidemia. In words: Clinical Trial DHA-Lycopene, 4 weeks. The class given is in vivo, human. Particulars: medians, DHA 250 mg and/or lycopene 7 mg once a day. The method, then:
To validate this, a clinical trial was undertaken. 32 individuals aged 40-65 years old with a moderate hyperlipidemia (serum triglycerides, TG, >150 mg/dl and LDL from 130 to 160 mg/dl). They were randomised and split in four groups of 8: • The first was supplemented with a 250 mg of conventional formulation of DHA without lycopene (CF-DHA), • the second with 7 mg of lycopene, • the third with 250 mg of DHA and 7 mg of lycopene co-ingested at the same time but as two separate products, and • the fourth group received 7 mg lycopene formulated with 250 mg of DHA (LF-DHA). All products were taken once a day with the main meal. The duration of the trial was for 4 weeks.

`CC(C)=CCC/C(C)=C/C=C/C(C)=C/C=C/C(C)=C/C=C/C=C(C)/C=C/C=C(C)/C=C/C=C(\C)CCC=C(C)C` [Lycopene]: for the setting “0 w”, the LDL came out at 156.0 mg/dL and the Triglycerides was 203.5 mg/dL. For the setting “4 w”, this compound came in with an LDL of 155.5 mg/dL and a Triglycerides of 190.0 mg/dL.
